molecular target: phosphorylated active hERK2 enzyme (Homo sapiens (Human), UniProt P28482); conditions: not given
Sequence (P28482 whole entry): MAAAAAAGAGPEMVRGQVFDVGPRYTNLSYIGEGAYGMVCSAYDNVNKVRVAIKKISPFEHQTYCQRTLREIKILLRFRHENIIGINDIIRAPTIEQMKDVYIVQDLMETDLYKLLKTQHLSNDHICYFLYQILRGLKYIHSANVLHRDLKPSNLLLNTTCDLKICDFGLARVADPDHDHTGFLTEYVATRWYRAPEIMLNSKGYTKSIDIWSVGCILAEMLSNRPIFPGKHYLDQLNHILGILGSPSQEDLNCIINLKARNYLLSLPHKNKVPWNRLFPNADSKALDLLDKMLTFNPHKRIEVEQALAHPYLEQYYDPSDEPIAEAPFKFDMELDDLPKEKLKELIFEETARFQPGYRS

| SMILES | IC50 [nM] |
| --- | --- |
| C[C@@H](NC(=O)Nc1cc2cnn(CC3CCCC3)c2c(CO)n1)c1ccccc1 [Example 303, 1-[1-(cyclopentylmethyl)-7-(hydroxymethyl)-1H-pyrazolo[3,4-c]pyridin-5-yl]-3-[(1R)-1-phenylethyl]urea] | 294 |
| C[C@@H](NC(=O)Nc1cc2cnn(CC3CCOCC3)c2c(CO)n1)c1ccccc1 [Example 309, 1-[7-(hydroxymethyl)-1-(tetrahydro-2H-pyran-4-ylmethyl)-1H-pyrazolo[3,4-c]pyridin-5-yl]-3-[(1R)-1-phenylethyl]urea] | 285 |

same assay, conditions: read-out: ERK2 IC50; IMAP-FP assay; 0.5 nM hERK2, 30 μM ATP; 10 point titration, 3 μM starting concentration

| SMILES | IC50 [nM] |
| --- | --- |
| Cc1cc(-n2ncc3cc(NC(=O)N[C@H]4CN(C)C[C@@H]4Oc4ccc(F)cc4)ncc32)ccn1 [Example 285, 1-[(3S,4S)-4-(4-fluorophenoxy)-1-methylpyrrolidin-3-yl]-3-[1-(2-methylpyridin-4-yl)-1H-pyrazolo[3,4-c]pyridin-5-yl]urea] | 16.4 |
| Cc1cc(-n2ncc3cc(NC(=O)NC4CNCC(c5ccccc5)C4)ncc32)ccn1 (centres unmarked) [Example 288, 1-[1-(2-methylpyridin-4-yl)-1H-pyrazolo[3,4-c]pyridin-5-yl]-3-(5-phenylpiperidin-3-yl)urea] | 10.5 |
| Cc1cc(-n2ncc3cc(NC(=O)NC[C@H]4CCN(C)C4)ncc32)ccn1 [Example 289, 1-[1-(2-methylpyridin-4-yl)-1H-pyrazolo[3,4-c]pyridin-5-yl]-3-{[(3R)-1-methylpyrrolidin-3-yl]methyl}urea] | 36.6 |
| Cc1cc(-n2ncc3cc(NC(=O)NC4CC(c5ccccc5)CN(C)C4)ncc32)ccn1 (centres unmarked) [Example 290, 1-(1-methyl-5-phenylpiperidin-3-yl)-3-[1-(2-methylpyridin-4-yl)-1H-pyrazolo[3,4-c]pyridin-5-yl]urea] | 17.8 |
| Cc1cc(-n2ncc3cc(NC(=O)N[C@@H](c4ccccc4)C(C)(C)O)ncc32)ccn1 [Example 292, (S)-1-(2-methyl-2-hydroxy-1-phenylpropyl)-3-(1-(2-methylpyridin-4-yl)-1H-pyrazolo[3,4-c]pyridin-5-yl)urea] | 0.558 |
| CCC(O)(CC)[C@@H](NC(=O)Nc1cc2cnn(-c3ccnc(C)c3)c2cn1)c1ccccc1 [Example 293, 1-[(1S)-2-ethyl-2-hydroxy-1-phenylbutyl]-3-[1-(2-methylpyridin-4-yl)-1H-pyrazolo[3,4-c]pyridin-5-yl]urea] | 2.66 |
| Cc1cc(-n2ncc3cc(NC(=O)N[C@@H](c4ccc(F)cc4)C(C)(C)O)ncc32)ccn1 [Example 294, 1-[(1S)-1-(4-fluorophenyl)-2-hydroxy-2-methylpropyl]-3-[1-(2-methylpyridin-4-yl)-1H-pyrazolo[3,4-c]pyridin-5-yl]urea] | 1.08 |
| CC(C)(O)[C@@H](NC(=O)Nc1cc2cnn(-c3ccc(F)cc3)c2cn1)c1ccccc1 [Example 296, 1-[1-(4-fluorophenyl)-1H-pyrazolo[3,4-c]pyridin-5-yl]-3-[(1S)-2-hydroxy-2-methyl-1-phenylpropyl]urea] | 0.812 |
| Cc1cc(-n2ncc3cc(NC(=O)N[C@@H](c4ccccc4)C(C)O)ncc32)ccn1 (stereo partly drawn) [Example 297, (S)-1-(2-hydroxy-1-phenylpropyl)-3-(1-(2-methylpyridin-4-yl)-1H-pyrazolo[3,4-c]pyridin-5-yl)urea] | 1.06 |
| CCn1ncc2cc(NC(=O)N[C@H](C)c3ccccc3)nc(CO)c21 [Example 299, 1-[1-Ethyl-7-(hydroxymethyl)-1H-pyrazolo[3,4-c]pyridin-5-yl]-3-[(1R)-1-phenylethyl]urea] | 18.1 |
| COCCCn1ncc2cc(NC(=O)N[C@H](C)c3ccccc3)nc(CO)c21 [Example 301, 1-[7-(hydroxymethyl)-1-(3-methoxypropyl)-1H-pyrazolo[3,4-c]pyridin-5-yl]-3-[(1R)-1-phenylethyl]urea] | 78 |
| CC(C)n1ncc2cc(NC(=O)N[C@H](C)c3ccccc3)nc(CO)c21 [Example 302, 1-[7-(hydroxymethyl)-1-(1-methylethyl)-1H-pyrazolo[3,4-c]pyridin-5-yl]-3-[(1R)-1-phenylethyl]urea] | 62.2 |
| C[C@@H](NC(=O)Nc1cc2cnn(CC3CCC3)c2c(CO)n1)c1ccccc1 [Example 304, 1-[1-(cyclobutylmethyl)-7-(hydroxymethyl)-1H-pyrazolo[3,4-c]pyridin-5-yl]-3-[(1R)-1-phenylethyl]urea] | 230 |
| CCCn1ncc2cc(NC(=O)N[C@H](C)c3ccccc3)nc(CO)c21 [Example 305, 1-[7-(hydroxymethyl)-1-propyl-1H-pyrazolo[3,4-c]pyridin-5-yl]-3-[(1R)-1-phenylethyl]urea] | 43.7 |
| C[C@@H](NC(=O)Nc1cc2cnn(C3CCCC3)c2c(CO)n1)c1ccccc1 [Example 307, 1-[1-cyclopentyl-7-(hydroxymethyl)-1H-pyrazolo[3,4-c]pyridin-5-yl]-3-[(1R)-1-phenylethyl]urea] | 125 |
| C[C@@H](NC(=O)Nc1cc2cnn(CC3CCOC3)c2c(CO)n1)c1ccccc1 (stereo partly drawn) [Example 311, 1-[7-(hydroxymethyl)-1-(tetra-hydrofuran-3-ylmethyl)-1H-pyrazolo[3,4-c]pyridin-5-yl]-3-[(1R)-1-phenylethyl]urea] | 158 |
| C[C@@H](NC(=O)Nc1cc2cnn(CC(F)(F)F)c2c(CO)n1)c1ccccc1 [Example 314, 1-[7-(hydroxymethyl)-1-(2,2,2-trifluoroethyl)-1H-pyrazolo[3,4-c]pyridin-5-yl]-3-[(1R)-1-phenylethyl]urea] | 175 |
| C[C@@H](NC(=O)Nc1cc2cnn(C3CCOCC3)c2c(CO)n1)c1ccccc1 [Example 316, 1-[7-(hydroxymethyl)-1-(tetra-hydro-2H-pyran-4-yl)-1H-pyra-- zolo[3,4-c]pyridin-5-yl]-3-[(1R)-1-phenylethyl]urea] | 236 |

Second part, the molecule after the results:

| IC50 [nM] | SMILES |
| --- | --- |
| 0.323 | Cc1cc(-n2ncc3cc(NC(=O)N[C@@H]4CCN(Cc5c(F)cccc5F)C4)ncc32)ccn1 [Example 283, 1-[(3R)-1-(2,6-difluorobenzyl)pyrrolidin-3-yl]-3-[1-(2-methylpyridin-4-yl)-1H-pyrazolo[3,4-c]pyridin-5-yl]urea] |
| 24.1 | Cc1cc(-n2ncc3cc(NC(=O)N[C@H]4CNC[C@@H]4Oc4ccc(F)cc4)ncc32)ccn1 [Example 284, 1-[(3S,4S)-4-(4-fluorophenoxy)pyrrolidin-3-yl]-3-[1-(2-methylpyridin-4-yl)-1H-pyrazolo[3,4-c]pyridin-5-yl]urea] |
| 23.4 | Cc1cc(-n2ncc3cc(NC(=O)NC[C@@H]4CCNC4)ncc32)ccn1 [Example 286, 1-[1-(2-methylpyridin-4-yl)-1H-pyrazolo[3,4-c]pyridin-5-yl]-3-[(3R)-pyrrolidin-3-ylmethyl]urea] |
| 43.2 | Cc1cc(-n2ncc3cc(NC(=O)NCC4(F)CNC4)ncc32)ccn1 [Example 287, 1-[(3-fluoroazetidin-3-yl)methyl]-3-[1-(2-methylpyridin-4-yl)-1H-pyrazolo[3,4-c]pyridin-5-yl]urea] |
| 46.4 | CO[C@H]1CN(C)C[C@@H]1NC(=O)Nc1cc2cnn(-c3ccnc(C)c3)c2cn1 [Example 291, 1-[(3S,4S)-4-methoxy-1-methylpyrrolidin-3-yl]-3-[1-(2-methylpyridin-4-yl)-1H-pyrazolo[3,4-c]pyridin-5-yl]urea] |
| 1.29 | CC(C)(O)[C@@H](NC(=O)Nc1cc2cnn(-c3ccc(F)cc3)c2cn1)c1ccc(F)cc1 [Example 295, 1-[(1S)-1-(4-fluorophenyl)-2-hydroxy-2-methylpropyl]-3-[1-(4-fluorophenyl)-1H-pyrazolo[3,4-c]pyridin-5-yl]urea] |
| 60.4 | C[C@@H](NC(=O)Nc1cc2cnn(C)c2c(CO)n1)c1ccccc1 [Example 298, (R)-1-(7-(Hydroxymethyl)-1-methyl-1H-pyrazolo[3,4-c]pyridin-5-yl)-3-(1-phenylethyl)urea] |
| 10.3 | Cc1cc(-n2ncc3cc(NC(=O)N[C@H](C)c4ccccc4)nc(CO)c32)ccn1 [Example 300, 1-[7-(Hydroxymethyl)-1-(2-methylpyridin-4-yl)-1H-pyrazolo[3,4-c]pyridin-5-yl]-3-[(1R)-1-phenylethyl]urea] |
| 178 | CC(C)Cn1ncc2cc(NC(=O)N[C@H](C)c3ccccc3)nc(CO)c21 [Example 306, 1-[7-(hydroxymethyl)-1-(2-methylpropyl)-1H-pyrazolo[3,4-c]pyridin-5-yl]-3-[(1R)-1-phenylethyl]urea] |
| 79.5 | C[C@@H](NC(=O)Nc1cc2cnn(CC3CC3)c2c(CO)n1)c1ccccc1 [Example 308, 1-[1-(cyclopropylmethyl)-7-(hydroxymethyl)-1H-pyrazolo[3,4-c]pyridin-5-yl]-3-[(1R)-1-phenylethyl]urea] |
| 160 | C[C@@H](NC(=O)Nc1cc2cnn(CCO)c2c(CO)n1)c1ccccc1 [Example 310, 1-[1-(2-hydroxyethyl)-7-(hydroxymethyl)-1H-pyrazolo[3,4-c]pyridin-5-yl]-3-[(1R)-1-phenylethyl]urea] |
| 296 | COCCn1ncc2cc(NC(=O)N[C@H](C)c3ccccc3)nc(CO)c21 [Example 312, 1-[7-(hydroxymethyl)-1-(2-methoxyethyl)-1H-pyrazolo[3,4-c]pyridin-5-yl]-3-[(1R)-1-phenylethyl]urea] |
| 49.1 | C[C@@H](NC(=O)Nc1cc2cnn(C3CCCCC3)c2c(CO)n1)c1ccccc1 [Example 313, 1-[1-cyclohexyl-7-(hydroxymethyl)-1H-pyrazolo[3,4-c]pyridin-5-yl]-3-[(1R)-1-phenylethyl]urea] |
| 143 | C[C@@H](NC(=O)Nc1cc2cnn(CC3COC3)c2c(CO)n1)c1ccccc1 [Example 315, 1-[7-(hydroxymethyl)-1-(oxetan-3-ylmethyl)-1H-pyrazolo[3,4-c]pyridin-5-yl]-3-[(1R)-1-phenylethyl]urea] |
| 327 | CC(C)(O)[C@@H](NC(=O)Nc1cc2cnn(-c3ncc4c(n3)CNCC4)c2cn1)c1ccc(F)cc1 [Example 317, 1-[(1S)-1-(4-fluorophenyl)-2-hydroxy-2-methylpropyl]-3-[1-(5,6,7,8-tetrahydropyrido[3,4-d]pyrimidin-2-yl)-1H-pyrazolo[3,4-c]pyridin-5-yl]urea] |
